Data on ten molecules can be found in patent US20250109139A1, “TRICYCLIC COMPOUND, AND PREPARATION METHOD THEREFOR AND USE THEREOF” (SHANGHAITECH UNIVERSITY, priority 2022, published 2025).

Where two headings read alike, the source gives them in different places. A value given as a limit tells only on which side of the number the result lay.

In assay [1] the target is T1, 5-hydroxytryptamine 1A (5-HT1A) receptors (Homo sapiens (Human), UniProt P08908). Nature of the assay: 5-HT1A receptor Gαi1 BRET (G protein trimer dissociation). It counts as cell-based. Conditions: relative to endogenous ligand 5-hydroxytryptamine.
T1 sequence (P08908 whole entry): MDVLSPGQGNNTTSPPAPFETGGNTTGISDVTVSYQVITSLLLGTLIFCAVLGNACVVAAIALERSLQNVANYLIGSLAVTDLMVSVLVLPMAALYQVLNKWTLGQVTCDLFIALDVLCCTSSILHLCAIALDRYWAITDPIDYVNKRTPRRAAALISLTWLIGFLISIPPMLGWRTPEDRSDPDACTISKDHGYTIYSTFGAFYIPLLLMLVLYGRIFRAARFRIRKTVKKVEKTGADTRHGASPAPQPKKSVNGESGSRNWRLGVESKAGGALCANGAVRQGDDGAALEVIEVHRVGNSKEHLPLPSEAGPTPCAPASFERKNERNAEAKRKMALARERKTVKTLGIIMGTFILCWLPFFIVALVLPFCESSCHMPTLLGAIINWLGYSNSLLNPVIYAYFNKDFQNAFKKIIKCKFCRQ
Assay [2] addresses T1, 5-hydroxytryptamine 1A (5-HT1A) receptors. The experiment in a line: 5-HT1A receptor β-arrestin2 BRET (recruitment). The assay is classed as cell-based. As to the method: At the same time, in order to examine the downstream β-arrestin2 signaling pathway mediated by 5-HT1A receptors, on the first day, a 6 cm culture dish was used for transfection with 500 ng of 5-HT1A receptors containing C-terminal seaweed luciferase (5HT1AR-Rluc), 500 ng of G protein-coupled receptor kinase 2 (GRK2), 2500 ng of β-arrestin2 containing N-terminal green fluorescent protein (GFP2-ARRB2), and 14 μL of PEI. The next day, the confluent cells of a 6 cm culture dish were digested and reseeded into a 96-well plate with 100 μL of culture medium added to each well. On the third day, the drugs were added for test. The 96-well plate was taken out from the cell incubator to decant the culture medium, 40 µL of the substrate coelenterazine 400a (final concentration of 5 μM) was added to each well, and then 20 μL of different drugs were added sequentially from left to right to ensure that the final concentration of the drug decreased gradually from bottom to top, with two replicates per treatment. Finally, the prepared samples were loaded on machine for test. The machine readout value reflected the recruitment of β-arrestin2 to the membrane or the dissociation of G protein trimer. The former indicated the degree of activation of the β-arrestin2 signaling pathway downstream of the 5-HT1 serotonin 1A receptors, and the latter indicated the degree of activation of the G protein signaling pathway downstream of the serotonin 1A receptors.

For assay [3], the target named is T2, dopamine D2 receptors (Homo sapiens (Human), UniProt P14416). Nature of the assay: Dopamine D2 receptor radioligand competition binding assay ([3H]-Methylspiperone). The note with it: [3H]-Methylspiperone 0.3 to 0.5 nM, 293T membranes. As to the method:
The affinity of the compounds of the present disclosure for dopamine D2 receptors was determined by a radioligand competition binding assay.
In the first step, a cell membrane component containing specific dopamine D2 receptors was prepared. A 10 cm culture dish was used for transfection with […] of dopamine D2 receptors and 40 μL of polyethylenimine (PEI hereafter). […] A vacuum pump was used to suck off the culture medium, 3 mL of lysis buffer was added to each culture dish, and the cells were placed in a 4° C. cold room for 10 minutes. After the cells were detached, the cells were transferred to a 15 mL centrifuge tube and centrifuged at 1500 rpm for 5 minutes at 4° C., and the supernatant was discarded. The cell pellet was transferred to a tissue homogenizer, and 3 mL of lysis buffer was added and fully ground until the cells were broken. Then, cell suspension was equally aliquoted into several EP tubes, centrifuged at 12000 rpm for 5 minutes at 4° C., and the supernatant was discarded. The precipitate was the cell membrane component containing the dopamine D2 receptors.
First, a standard binding buffer was added to the cell membrane component containing the dopamine D2 receptors, and the cell membrane was disrupted and resuspended with an electric tissue homogenizer. 30 μL of membrane protein suspension was added to each well of a 96-well plate. Then, 30 μL of different drugs were added to the 96-well plate sequentially from bottom to top to ensure that the final drug concentrations were 10^−5 M, 10^−6 M, 10^−7 M, 10^−8 M, 10^−9 M, and 0 M, with two replicates per treatment. Next, 30 μL of [3H]-Methylspiperone was added to each well of the 96-well plate. The plate was incubated at room temperature in the dark for 2 hours. Detection was conducted. The machine readout value reflected the amount of [3H]-Methylspiperone bound on the membrane, and after further data processing, the affinity Ki values of different compounds for the dopamine D2 receptors were obtained.

Assay [4] addresses T2, dopamine D2 receptors. Nature of the assay: Dopamine D2 receptor β-arrestin2 BRET (recruitment). Conditions: for Emax: relative to endogenous ligand dopamine, read-out: β-arrestin2 BRET Emax % ± SEM; for EC50: unit printed only in Cariprazine cell, read-out: β-arrestin2 BRET EC50. It counts as cell-based. The gist of the method:
(§1)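 G-protein assay: cells co-transfected with D2 receptor, Gαi1-Rluc, Gβ3 and Gγ9-GFP (1 μg each); β-arrestin2 assay: D2-Rluc, GRK2 and GFP2-β-arrestin2 co-transfected. Cells were reseeded after one day and tested on day three. Drug dilution series were added in duplicate with coelenterazine 400a (5 μM final), and the BRET signal was read.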

Assay [5] addresses T2, dopamine D2 receptors. Nature of the assay: Dopamine D2 receptor Gαi1 BRET (G protein trimer dissociation). It counts as cell-based. Conditions: for Emax: relative to endogenous ligand dopamine, read-out: Gαi1 BRET Emax % ± SEM. Put shortly: as §1
Assay [6] has as its target 5-HT2A receptors (Homo sapiens (Human), UniProt P28223). The experiment in a line: 5-HT2A receptor radioligand competition binding assay ([3H]-ketanserin). As to the method: The affinity of the compounds of the present disclosure for 5-HT2A receptors was determined by a radioligand competition binding assay. In the first step, a cell membrane component containing specific 5-HT2A receptor was prepared. A 10 cm dish was used for transfection with […] of 5-HT2A receptors and 40 μL of PEI. After 48 hours, the 10 cm dish was taken out from the cell incubator and the cultured cells had expressed the 5-HT2A receptors. A vacuum pump was used to suck off the culture medium, 3 mL of lysis buffer was added to each culture dish, and the cells were placed in a 4° C. cold room for 10 minutes. After the cells were detached, the cells were transferred to a 15 mL centrifuge tube and centrifuged at 1500 rpm for 5 minutes at 4° C., and the supernatant was discarded. The cell pellet was transferred to a tissue homogenizer, and 3 mL of lysis buffer was added and fully ground until the cells were broken. Then, cell suspension was equally aliquoted into several EP tubes, centrifuged at 12000 rpm for 5 minutes at 4° C., and the supernatant was discarded. The precipitate was the cell membrane component containing the 5-HT2A receptors. […] First, a standard binding buffer was added to the cell membrane component containing the 5-HT2A receptors, and the cell membrane was disrupted and resuspended with an electric tissue homogenizer. 30 μL of membrane protein suspension was added to each well of a 96-well plate. Then, 30 μL of different drugs were added to the 96-well plate sequentially from bottom to top to ensure that the final drug concentrations were 10^−5 M, 10^−6 M, 10^−7 M, 10^−8 M, 10^−9 M, and 0 M, with two replicates per treatment. Next, 30 μL of [^3H]-ketanserin was added to each well of the 96-well plate. The plate was incubated at room temperature in the dark for 2 hours. Detection was conducted. The machine readout value reflected the amount of [^3H]-ketanserin bound on the membrane, and after further data processing, the affinity Ki values of different compounds for the 5-HT2A receptors were obtained.

Assay [7] has as its system MK801-induced hyperlocomotion in mice. The experiment in a line: Open field test, MK801-induced hyperlocomotion (schizophrenia-like model). It counts as in vivo, C57B6 male mice. As to the method: Experimental method: The experimental animals were C57B6 male mice, n=8 in each group. In this model, C57B6 mice were used as experimental animals. Hyperlocomotion of the mice in open field was induced by acute injection of a NMDA antagonist MK801, and modeled to test the inhibitory effect of different compounds on hyperlocomotion phenotype induced by MK801 All mouse behavior experiments were carried out during the light period. The whole process was recorded by the camera, and locomotive data were tracked and analyzed by behavioral tracking software. The compounds were administered intraperitoneally. Immediately after the injection, the mice entered the open field and their movement trajectories were recorded by the camera. After 30 minutes, the mice received 0.2 mg/kg of MK801 by intraperitoneal injection and returned to the open field immediately after administration, and the movement trajectories were further recorded for 120 minutes. The accumulative travelled distance of the mice was counted in a 5-minute bin. Data statistics were performed using Student-t-test analysis, *p<0.05, **p<0.01, ***p<0.001, ****p<0.0001. The total travelled distance of the mice in the 0-45 minute interval after administration of the compounds of the present disclosure at different doses in combination with MK801 (0.2 mg/kg) is shown in Table 10.

Where [8] appears, read: read-out: Gαi1 BRET pEC50 ± SEM (converted).
Where [9] appears, read: unit printed only in Cariprazine cell, read-out: Gαi1 BRET EC50.
Where [10] appears, read: [3H]-ketanserin, 293T membranes, read-out: Ki.

Sequence of 5-HT2A receptors (P28223 whole entry): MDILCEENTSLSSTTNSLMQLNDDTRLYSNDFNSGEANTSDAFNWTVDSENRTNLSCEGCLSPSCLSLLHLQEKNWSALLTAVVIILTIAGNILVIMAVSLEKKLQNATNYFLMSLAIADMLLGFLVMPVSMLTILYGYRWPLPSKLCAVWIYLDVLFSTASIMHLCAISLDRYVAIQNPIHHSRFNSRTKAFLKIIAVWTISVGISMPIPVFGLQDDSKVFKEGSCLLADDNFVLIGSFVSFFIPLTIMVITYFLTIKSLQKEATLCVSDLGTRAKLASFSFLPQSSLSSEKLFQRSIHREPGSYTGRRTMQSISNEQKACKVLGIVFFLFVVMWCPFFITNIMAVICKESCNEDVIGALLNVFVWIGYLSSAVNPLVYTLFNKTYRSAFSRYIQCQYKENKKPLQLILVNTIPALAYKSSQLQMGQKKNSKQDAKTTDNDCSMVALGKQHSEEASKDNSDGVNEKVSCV
T2 sequence (P14416 whole entry): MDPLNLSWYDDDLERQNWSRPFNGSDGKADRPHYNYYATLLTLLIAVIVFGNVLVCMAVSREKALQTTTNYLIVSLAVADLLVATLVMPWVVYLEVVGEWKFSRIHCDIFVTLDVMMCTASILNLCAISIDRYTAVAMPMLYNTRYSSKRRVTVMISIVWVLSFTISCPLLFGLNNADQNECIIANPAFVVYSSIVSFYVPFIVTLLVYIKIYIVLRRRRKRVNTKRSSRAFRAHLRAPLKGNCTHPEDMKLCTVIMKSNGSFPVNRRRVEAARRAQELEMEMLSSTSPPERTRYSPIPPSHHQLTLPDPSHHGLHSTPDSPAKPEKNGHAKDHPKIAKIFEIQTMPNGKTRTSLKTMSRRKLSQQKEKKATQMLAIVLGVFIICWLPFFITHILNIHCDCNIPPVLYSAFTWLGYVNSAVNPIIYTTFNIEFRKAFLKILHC

As to `CCOc1cccc2c3c(oc12)CN(CCN1CCc2nn(C)c(C)c2C1=O)CC3` [I-A39, 5-(2-(8-ethoxy-3,4-dihydrobenzofuro[2,3-c]pyridin-2(1H)-yl)ethyl)-2,3-dimethyl-2,5,6,7-tetrahydro-4H-pyrazolo[4,3-c]pyridin-4-one], the figures for the Emax in assay [1] and in assay [2] (relative to endogenous ligand 5-hydroxytryptamine) were 82.2% and 20.6%, respectively.
On to `CCOc1cccc2c3c(oc12)CN(CCC1CC(NC(=O)N(C)C)C1)CC3` (centres unmarked) [I-A34, 3-(3-(2-(8-ethoxy-3,4-dihydrobenzofuro[2,3-c]pyridin-2(1H)-yl)ethyl)cyclobutyl)-1,1-dimethylurea], for which the Ki is 605 nM in assay [3] (read-out: Affinity Ki) and 617 nM in assay [3] (read-out: Affinity pKi ± SEM (converted)). Besides, the figures for the Emax in assay [4] and in assay [1] were 33% and 38.4%, respectively. Also, in assay [4], the EC50 came to 2.81 nM.
`COc1cccc2c3c(oc12)CN(CC1(O)CCCCC1)CC3` [I-A21, 1-((8-methoxy-3,4-dihydrobenzofuro[2,3-c]pyridin-2(1H)-yl)methyl)cyclohexan-1-ol]: the “Affinity pKi ± SEM” value in assay [3] is “(6.28 ± 0.28)”. For the same molecule, the Ki in assay [3] (read-out: Affinity Ki) is 524 nM; in assay [6] (setting [10]), greater than 10000 nM. Besides, the figures for the EC50 in assay [5] (setting [8]), in assay [5] (setting [9]) and in assay [4] were 2.95 nM, 4.61 nM and 23.6 nM, respectively. Besides, the figures for the Emax in assay [5] and in assay [4] were 68% and 59%, respectively. Also, the “affinity for 5-HT2A receptors (in words)” value in assay [6] is “very weak affinity”.
On to `CC(C)Oc1cccc2c3c(oc12)CN(CCCCOc1ccc2ccc(=O)[nH]c2c1)CC3` [I-A18, 7-(4-(8-isopropoxy-3,4-dihydrobenzofuro[2,3-c]pyridin-2(1H)-yl)butoxy)quinolin-2(1H)-one], for which, in assay [3], the “Affinity pKi ± SEM” value is listed as “(7.05 ± 0.09)”. In assay [1], this molecule returned an Emax of 81.9%.
For the molecule `CCOc1cccc2c3c(oc12)CN(CC1(O)CCCCC1)CC3` [I-A28, 1-((8-ethoxy-3,4-dihydrobenzofuro[2,3-c]pyridin-2(1H)-yl)methyl)cyclohexan-1-ol], the “Affinity pKi ± SEM” value in assay [3] was “(6.99 ± 0.21)”. The Ki in assay [3] (read-out: Affinity Ki) is 103 nM; in assay [6] (setting [10]), greater than 10000 nM. For the same molecule, the values for the EC50 in assay [5] (setting [8]), in assay [5] (setting [9]) and in assay [4] were 44.7 nM, 32.5 nM and 238 nM, respectively. In addition, the Emax in assay [5] worked out at 27%; in assay [4], 82%. The “affinity for 5-HT2A receptors (in words)” value in assay [6] is given as “very weak affinity”.
As to `CCOc1cccc2c3c(oc12)CN(CCCCOc1ccc2c(c1)NC(=O)CO2)CC3` [I-A30, 6-(4-(8-ethoxy-3,4-dihydrobenzofuro[2,3-c]pyridin-2(1H)-yl)butoxy)-2H-benzo[b][1,4]oxazin-3(4H)-one], the Ki in assay [3] (read-out: Affinity Ki) turned out to be 151 nM. In addition, in assay [4], the Emax came to 52% and the EC50 came out at 23.7 nM. For the same molecule, the Emax in assay [1] turned out to be 74.5%.
Turning to `CCOc1cccc2c3c(oc12)CN(CCCCN1C(=O)CC(C)(C)CC1=O)CC3` [I-A45, 1-(4-(8-ethoxy-3,4-dihydrobenzofuro[2,3-c]pyridin-2(1H)-yl)butyl)-4,4-dimethylpiperidine-2,6-dione], the “Affinity pKi ± SEM” value in assay [3] is reported as “(6.14 ± 0.15)”. Also, the Ki in assay [3] (read-out: Affinity Ki) turned out to be 714 nM. Also, the maximal effect (Emax) in assay [4] was 30%; in assay [1], 74.3%. Besides, in assay [4], the EC50 stood at 25.4 nM.
For the molecule `COc1cccc2c3c(oc12)CN(CCCCOc1ccc2c(c1)NC(=O)CC2)CC3` [I-A2, 7-(4-(8-methoxy-3,4-dihydrobenzofuro[2,3-c]pyridin-2(1H)-yl)butoxy)-3,4-dihydroquinolin-2(1H)-one], the “affinity for 5-HT2A receptors (in words)” value in assay [6] is listed as “very weak affinity”. The “pKi ± SEM” value in assay [6] ([3H]-ketanserin, 293T membranes) is on record as “(5.95 ± 0.05)”. For the same molecule, the Ki in assay [6] (setting [10]) is 1110 nM. The “Distance travelled in 45 minutes” value in assay [7] (MK801 0.2 mg/kg + compound 1 mg/kg i.p.) turned out to be 8795.03 cm; in assay [7] (MK801 0.2 mg/kg + compound 4 mg/kg i.p.) it was 6152.62 cm; in assay [7] (MK801 0.2 mg/kg + compound 16 mg/kg i.p.) it was 3028.99 cm.
For `CN(C)C(=O)N[C@H]1CC[C@H](CCN2CCN(c3cccc(Cl)c3Cl)CC2)CC1` [Cariprazine, reference compound], the “β-arrestin2 BRET EC50” value in assay [2] is recorded as “Inactive”.
For `CCOc1cccc2c3c(oc12)CN(CCCCOc1ccc2ccc(=O)[nH]c2c1)CC3` [I-A16, 7-(4-(8-ethoxy-3,4-dihydrobenzofuro[2,3-c]pyridin-2(1H)-yl)butoxy)quinolin-2(1H)-one], the “Affinity pKi ± SEM” value in assay [3] is on record as “(7.78 ± 0.41)”. Besides, the Ki in assay [3] (read-out: Affinity Ki) came to 16.5 nM. In assay [4], the “β-arrestin2 BRET pEC50 ± SEM” value is “(7.94 ± 0.11)” and the EC50 is 11.3 nM. Moreover, in assay [1], the maximum response (Emax) is 85.9%. In assay [6], the Ki turned out to be 1320 nM and the “affinity for 5-HT2A receptors (in words)” value was “very weak affinity”.
